The term IC50 denotes the concentration needed to halve the response being measured. The low end stands for greater potency in that assay, the high end for weaker potency in that assay.

Structures are written as SMILES.

This experiment has as its target T1, Steroid 5-alpha-reductase (Rattus norvegicus, UniProt P24008+P31214).
T1 sequence (P24008 whole entry): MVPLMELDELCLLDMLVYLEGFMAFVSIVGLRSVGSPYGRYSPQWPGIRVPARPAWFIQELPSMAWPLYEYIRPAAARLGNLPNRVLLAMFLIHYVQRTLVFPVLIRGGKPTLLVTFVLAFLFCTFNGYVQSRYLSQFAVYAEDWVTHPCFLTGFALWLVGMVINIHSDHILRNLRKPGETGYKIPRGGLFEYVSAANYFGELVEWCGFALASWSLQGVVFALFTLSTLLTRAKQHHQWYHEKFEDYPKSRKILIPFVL
T1 sequence (P31214 whole entry): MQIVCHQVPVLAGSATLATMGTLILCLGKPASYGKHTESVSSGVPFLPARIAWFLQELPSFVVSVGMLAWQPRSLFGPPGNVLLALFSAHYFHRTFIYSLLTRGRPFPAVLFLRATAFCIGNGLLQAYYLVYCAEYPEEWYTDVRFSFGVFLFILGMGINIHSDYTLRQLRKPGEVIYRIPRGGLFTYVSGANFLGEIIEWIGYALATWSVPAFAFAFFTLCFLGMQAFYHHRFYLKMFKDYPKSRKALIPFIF
Briefly: Inhibitory concentration against rat Steroid 5-alpha-reductase. The experiment is classed as protein assay.
With `CC(C)(O)C1Cc2c(ccc(-c3coc4cc5c(c(O)c4c3=O)CC(C(C)(C)O)O5)c2O)O1` (stereo not drawn), the IC50 worked out at 26.2 µM. As for `CC(C)(O)C1Cc2c(O)ccc(-c3coc4cc(O)cc(O)c4c3=O)c2O1` (stereo not drawn), the figure is 6.9 µM. As for `C=C(C)C1Cc2c(cc3occ(-c4ccc(O)cc4O)c(=O)c3c2O)O1` (stereo not drawn), the figure is 15.7 µM.

For `COc1cc2c(c3occ(-c4ccc(OCc5ccccc5)cc4OCc4ccccc4)c(=O)c13)C=CC(C)(C)O2`, the IC50 was found to be 27.4 µM.

`CC(C)(O)C1Cc2c(ccc(-c3coc4cc(O)cc(O)c4c3=O)c2O)O1` (stereo not drawn): the IC50 came to 23.1 µM. As for `COc1cc2c(cc1OC)-c1c(oc3c4c(cc(O)c3c1=O)OC(C)(C)C=C4)CO2`, the figure is 48.7 µM. For `COc1ccc(-c2coc3c4c(cc(OC)c3c2=O)OC(C)(C)C=C4)c(OC)c1`, the IC50 is 30.1 µM. As for `COc1cc2c(c3occ(-c4ccc(OCc5ccccc5)cc4OCc4ccccc4)c(=O)c13)C(=O)CC(C)(C)O2`, the figure is 31 µM.

For the origin of these results see ChEMBL document CHEMBL1134671, “Novel lead generation through hypothetical pharmacophore three-dimensional database searching: discovery of isoflavonoids as nonsteroidal inhibitors of rat 5 alpha-reductase” (J Med Chem, 2001).
